# Assay results: patent publication US10787441B2, “Hepatitis C virus inhibitors” (priority 2016, dated 2020)
# Read-outs that look alike come from different tables or passages of the source.
# Key:
# Format in all cases: cell-based, Hepatitis C virus
# [1] = system: HCV genotype 3a NS5A within the 1b-replicon; test: HCV replicon assay, genotype 3a (NS5A intergenotypic stable cell line)
# Text: The nucleotide sequences of the NS5A region of genotype 2a (GenBank Accession # AB047639), genotype 3a (GenBank Accession # D17763), and genotype 4a (GenBank Accession # DQ418788) were synthesized by an outside vendor. The NS5A region of each of these genotypes included the first 11 amino acids of the protease recognition sequence of genotype 1b, as well as the last 10 amino acids of genotype 1b. The NS5A gene cassettes were excised with site specific restriction endonucleases and ligated into a ZS11-luciferase genotype 1b backbone (backbone contains the genotype 1b NS3 protease, NS4a, NS4b, and NS5b coding regions) with similarly cut restriction enzyme sites. Thus, the newly constructed plasmid contains a genotype 2a-, 3a- or 4a-specific NS5A gene within the 1b-replicon.
# These new intergenotypic plasmids were used to establish stable cell lines. RNA was generated from the NS5A intergenotypic plasmids and used in conjunction with a lipofectin reagent to transfect a cured Huh7 cell line. Transfected cells were selected for with G418. After selection has occurred the stable cell lines were propagated, tested for luciferase activity, and RT-PCR with genotype specific primers (either 1a, 2a, 3a, or 4a). Stable cell lines containing the intergenotypic replicon were then fully sequenced and analyzed for proper expression of NS3, NS5A and NS5B proteins.
# Drug titration analysis was performed using the luciferase replicon assay described herein.
# (§1) The HCV luciferase replicon assay measures the ability of a test compound to inhibit HCV replication in cell culture after 3 days of treatment in a human hepatoma cell line (Huh-7) bearing an HCV replicon containing a luciferase-neomycin phosphotransferase fusion gene. The inhibition of HCV replication was measured by quantification of luciferase protein expression. Briefly, Huh-7 cells containing either the HCV genotype 1a H77 strain or genotype 1b Con1 strain subgenomic luciferase replicon (H1a-luc or Zluc, respectively) were grown in DMEM containing glucose, L-glutamine and sodium pyruvate, 10% fetal bovine serum (FBS), 100 IU/mL penicillin, 100 μg/mL streptomycin, 2 mM GlutaMAX, non-essential amino acids and 0.25 (H1a-luc) or 0.5 (Zluc) mg/mL G418. GlutaMAX was obtained from Invitrogen, Corp.; all other media reagents were obtained from Mediatech, Inc. For dose-response testing, the cells were seeded in 96-well plates at 1×10^4 (H1a-luc) or 7.5×10^3 (Zluc) cells/well in a volume of 50 μL, and incubated at 37° C./5% CO2. Three hours after plating, 50 μL of ten 5-fold serial dilutions of compound were added, and cell cultures were incubated at 37° C./5% CO2 for 72 hours. In all cases, Huh-7 cells lacking the HCV replicon served as negative control. To assess luciferase expression, the media/compound was removed from the plates and ONE-glo Luciferase assay reagent (Promega) was added to each well. The assay plates were shaken for 3 minutes at room temperature and luciferase activity for each well was measured with a 1 sec read time on the Victor^3V multilabel counter using a 700 nm cut-off filter (Perkin Elmer). EC50 values were calculated from dose response curves from the resulting best-fit equations determined by Microsoft Excel and XLfit 4.1 software.
# HCV 2b = test: HCV replicon assay, genotype 2b
# [2] = system: HCV genotype 1a H77 strain subgenomic luciferase replicon; test: HCV replicon assay, genotype 1a
# Description: as §1
# [3] = system: HCV 1aY93H mutant replicon; test: HCV replicon assay, genotype 1a Y93H mutant
# Description: General procedure: The luciferase replicon transient transfection assay measures the ability of a test compound to inhibit the replication of a transiently-transfected HCV luciferase-bearing wild-type or mutant replicon in cured human hepatoma cells (Huh7.5). The inhibition of HCV replication was measured by quantification of luciferase protein expression. This assay has been validated using a panel of genotype 1a and 1b replicons bearing mutations known to be associated with resistance to BMS-790052. Briefly, subconfluent Huh7.5 cells were electroporated with 10 μg of wild-type or mutant luciferase-bearing HCV replicon RNA. The cells were then seeded in 96-well opaque white plates at 3×10^4 cells/well in 150 μL/well and incubated for 4 hrs at 37° C./5% CO2. Ten 1:5 serial dilutions of each test compound were made in media (DMEM containing glucose, L-glutamine and sodium pyruvate, 10% fetal bovine serum, 100 IU/mL penicillin, 100 μg/mL streptomycin, 2 mM GlutaMAX, and 1×MEM non-essential amino acids (Mediatech, Inc. and Invitrogen Corp.)) at concentrations that were 4× higher than the final concentrations to be tested and 50 μL/well was added to the transfected cells. Untreated, mock-transfected cells served as a negative control of luciferase expression. The plates were incubated at 37° C./5% CO2 for 4 days whereupon the media was removed and 50 μL of ONE-glo luciferase substrate (Promega) was added to each well. The plates were agitated on a rotating platform at room temperature for 3 min and read in a Victor^3V microplate reader (Perkin-Elmer) using a 700 nm cut-off filter with a 1 sec read time. EC50 values were calculated from dose response curves from the resulting best-fit equations determined by Microsoft Excel and XLfit 4.1 software.
# [4] = system: HCV genotype 1b Con1 strain subgenomic luciferase replicon; test: HCV replicon assay, genotype 1b
# Description: as §1
# [5] = Hepatitis C virus, read-out: 3a IC50 (nM), HCV genotype 3a
# [6] = read-out: 2b IC50, HCV genotype 2b
# [7] = read-out: 1a IC50, HCV genotype 1a
# [8] = Hepatitis C virus, read-out: 1aY93H IC50 (nM), HCV genotype 1a, Y93H mutant
# [9] = read-out: 3a IC50, HCV genotype 3a
# [10] = read-out: 1aY93H IC50, HCV genotype 1a, Y93H mutant
# [11] = Hepatitis C virus, read-out: 1a IC50 (nM), HCV genotype 1a
# [12] = Hepatitis C virus, read-out: 2b IC50 (nM), HCV genotype 2b
Structure (SMILES),"IC50 [1, 5]",IC50 (HCV 2b; [6]),"IC50 [2, 7]","IC50 [3, 8]",IC50 [4],"IC50 [1, 9]","IC50 [3, 10]","IC50 [2, 11]",IC50 ([4]; Hepatitis C virus),IC50 (HCV 2b; [12])
"COC(=O)N[C@H](C(=O)N1CCC[C@H]1c1ncc(-c2ccc3c(c2)Oc2ccc4cc(-c5cnc([C@@H]6CCCN6C(=O)[C@@H](NC(=O)OC)C(C)C)[nH]5)ccc4c2C3C)[nH]1)C(C)C (single isomer, unassigned) [Compound 2]",1.38 nM,37.1 nM,0.0046 nM,10.6 nM,0.0036 nM,–,–,–,–,–
"COC(=O)N[C@H](C(=O)N1CCC[C@H]1c1ncc(-c2ccc3c(c2)Oc2ccc4cc(-c5cnc([C@@H]6CCCN6C(=O)[C@@H](NC(=O)OC)C(C)C)[nH]5)ccc4c2C3C)[nH]1)C(C)C (single isomer, unassigned) [Compound 3]",–,1.95 nM,0.0022 nM,–,0.0016 nM,0.721 nM,7.15 nM,–,–,–
"COC(=O)N[C@H](C(=O)N1CCC[C@H]1c1ncc(-c2ccc3c(c2)Oc2ccc4cc(-c5cnc([C@@H]6CCCN6C(=O)[C@@H](NC(=O)OC)C6CCOCC6)[nH]5)ccc4c2C3C)[nH]1)C1CCOCC1 (single isomer, unassigned) [Compound 11]",0.038 nM,0.016 nM,–,0.391 nM,–,–,–,0.0037 nM,0.0044 nM,–
"COC(=O)N[C@H](C(=O)N1CCC[C@H]1c1ncc(-c2ccc3c(c2)Oc2ccc4cc(-c5cnc([C@@H]6CCCN6C(=O)[C@@H](NC(=O)OC)C6CCOCC6)[nH]5)ccc4c2C3C)[nH]1)C1CCOCC1 (single isomer, unassigned) [Compound 12]",–,0.495 nM,0.0045 nM,–,0.0056 nM,0.055 nM,0.548 nM,–,–,–
"CCC1c2ccc(-c3cnc([C@@H]4CCCN4C(=O)[C@@H](NC(=O)OC)C4CCOCC4)[nH]3)cc2Oc2ccc3cc(-c4cnc([C@@H]5CCCN5C(=O)[C@@H](NC(=O)OC)C5CCOCC5)[nH]4)ccc3c21 (single isomer, unassigned) [Compound 15]",–,–,0.0098 nM,–,–,0.218 nM,0.826 nM,–,0.0036 nM,0.292 nM
"CCC1(CC)c2ccc(-c3cnc([C@@H]4CCCN4C(=O)[C@H](NC(=O)OC)C(C)C)[nH]3)cc2Oc2cc3ccc(-c4cnc([C@@H]5CCCN5C(=O)[C@@H](NC(=O)OC)C(C)C)[nH]4)cc3cc21 [Compound 9, methyl [(1R)-1-({(2S)-2-[5-(12,12-diethyl-9-{2-[(2S)-1-{(2S)-2-[(methoxycarbonyl)amino]-3-methylbutanoyl}pyrrolidin-2-yl]-1H-imidazol-5-yl}-12H-benzo[b]xanthen-3-yl)-1H-imidazol-2-yl]pyrrolidin-1-yl}carbonyl)-2-methylpropyl]carbamate]",1.11 nM,–,–,3.28 nM,–,–,–,0.002 nM,–,4.53 nM
"COC(=O)N[C@H](C(=O)N1CCC[C@H]1c1ncc(-c2ccc3c(c2)Oc2ccc4cc(-c5cnc([C@@H]6CCCN6C(=O)[C@@H](NC(=O)OC)C6CCOCC6)[nH]5)ccc4c2C3(C)C)[nH]1)C1CCOCC1 [Compound 13, dimethyl [(12,12-dimethyl-12H-benzo[a]xanthene-3,9-diyl)bis{1H-imidazole-5,2-diyl(2S)pyrrolidine-2,1-diyl[(1S)-2-oxo-1-(tetrahydro-2H-pyran-4-yl)ethane-2,1-diyl]}]biscarbamate]",0.084 nM,–,–,0.682 nM,–,–,–,0.0023 nM,0.004 nM,0.254 nM
"CCC1(CC)c2ccc(-c3cnc([C@H]4CCCN4C(=O)[C@@H](NC(=O)OC)C4CCOCC4)[nH]3)cc2Oc2ccc3cc(-c4cnc([C@H]5CCCN5C(=O)[C@H](NC(=O)OC)C5CCOCC5)[nH]4)ccc3c21 [Compound 16, methyl [(1R)-2-[(2R)-2-{5-[12,12-diethyl-9-(2-{(2R)-1-[(2S)-2-[(methoxycarbonyl)amino]-2-(tetrahydro-2H-pyran-4-yl)acetyl]pyrrolidin-2-yl}-1H-imidazol-5-yl)-12H-benzo[a]xanthen-3-yl]-1H-imidazol-2-yl}pyrrolidin-1-yl]-2-oxo-1-(tetrahydro-2H-pyran-4-yl)ethyl]carbamate]",0.015 nM,–,–,0.072 nM,–,–,–,0.0036 nM,0.0044 nM,0.032 nM
"COC(=O)N[C@H](C(=O)N1CCC[C@H]1c1ncc(-c2ccc3c(ccc4oc5cc(-c6cnc([C@@H]7CCCN7C(=O)[C@@H](NC(=O)OC)C7CCOCC7)[nH]6)ccc5c(=O)c43)c2)[nH]1)C1CCOCC1 [Compound 30, dimethyl [(12-oxo-12H-benzo[a]xanthene-3,9-diyl)bis{1H-imidazole-5,2-diyl(2S)pyrrolidine-2,1-diyl[(1S)-2-oxo-1-(tetrahydro-2H-pyran-4-yl)ethane-2,1-diyl]}]biscarbamate]",0.722 nM,–,–,2.03 nM,–,–,–,0.0416 nM,–,0.481 nM
"CCN(CC)[C@@H](C(=O)N1C[C@H](F)C[C@H]1c1ncc(-c2ccc3c(ccc4oc5cc(-c6cnc([C@@H]7C[C@@H](F)CN7C(=O)[C@@H](c7ccccc7)N(CC)CC)[nH]6)ccc5c(=O)c43)c2)[nH]1)c1ccccc1 [Compound 31, 3,9-bis(2-{(2S,4R)-1-[(2R)-2-(diethylamino)-2-phenylacetyl]-4-fluoropyrrolidin-2-yl}-1H-imidazol-5-yl)-12H-benzo[a]xanthen-12-one]",0.0262 nM,–,–,506 nM,–,–,–,0.31 nM,–,797 nM
"COC(=O)N[C@H](C(=O)N1C[C@H](F)C[C@H]1c1ncc(-c2ccc3c(ccc4oc5cc(-c6cnc([C@@H]7C[C@@H](F)CN7C(=O)[C@@H](NC(=O)OC)C7CCOCC7)[nH]6)ccc5c(=O)c43)c2)[nH]1)C1CCOCC1 [Compound 32, dimethyl [(12-oxo-12H-benzo[a]xanthene-3,9-diyl)bis{1H-imidazole-5,2-diyl[(2S,4R)-4-fluoropyrrolidine-2,1-diyl][(1S)-2-oxo-1-(tetrahydro-2H-pyran-4-yl)ethane-2,1-diyl]}]biscarbamate]",5.84 nM,–,–,0.18 nM,–,–,–,0.0841 nM,–,3.47 nM
